According to the NIST ThermoML archive (doi:10.1016/j.tca.2016.03.013):
Several values for one entry are separate records, joined by “and”; a condition that tells them apart may be missing. Identical values can stand only once.

How the values were obtained:
[1] = for vapor or sublimation pressure: Liquid, Rate of evaporation; for Normal melting temperature: Crystal, DTA
[2] = Molar enthalpy of transition or fusion; settings: Crystal; DSC
[3] = molar heat capacity at constant pressure; settings: 101.33 kPa, Small sample (50 mg) DSC

c1ccc2c(c1)OCCOCCOCCOCCOc1ccccc1OCCOCCOCCOCCO2 [dibenzo-30-crown-10]
[1]
Settings | vapor or sublimation pressure
545 K | 0.0347 kPa and 0.0354 kPa
550 K | 0.0405 kPa and 0.0424 kPa and 0.0433 kPa
555 K | 0.0515 kPa and 0.0526 kPa and 0.0536 kPa
560 K | 0.0655 kPa and 0.0614 kPa and 0.0649 kPa
565 K | 0.0772 kPa and 0.0781 kPa and 0.0764 kPa
570 K | 0.0969 kPa and 0.0924 kPa and 0.0946 kPa
575 K | 0.116 kPa and 0.118 kPa and 0.1176 kPa
580 K | 0.1429 kPa and 0.1455 kPa and 0.1444 kPa
585 K | 0.1768 kPa and 0.1779 kPa and 0.188 kPa
590 K | 0.2184 kPa and 0.2143 kPa and 0.2192 kPa
595 K | 0.2675 kPa and 0.2625 kPa and 0.2682 kPa

Settings | Molar enthalpy of transition or fusion [kcal/mol] | Normal melting temperature [°C]
[1] | – | 104.5
[2] | 20.7 | –

[3]
Settings | molar heat capacity at constant pressure [J/K/mol]
295 K, Crystal | 668.8
298.15 K, Crystal | 680.4
300 K, Crystal | 686.9
305 K, Crystal | 700.3
310 K, Crystal | 715.3
315 K, Crystal | 728.4
320 K, Crystal | 741.6
325 K, Crystal | 755.5
330 K, Crystal | 769.9
335 K, Crystal | 783.3
340 K, Crystal | 797
345 K, Crystal | 811.5
350 K, Crystal | 826.4
355 K, Crystal | 844.9
360 K, Crystal | 868.2
390 K, Liquid | 1144.6
395 K, Liquid | 1148.9
400 K, Liquid | 1153
405 K, Liquid | 1159.5
410 K, Liquid | 1164.6
415 K, Liquid | 1169.3
420 K, Liquid | 1179.2
425 K, Liquid | 1186.2
430 K, Liquid | 1187.9
435 K, Liquid | 1195
440 K, Liquid | 1196.6
445 K, Liquid | 1199.2
450 K, Liquid | 1201.2
455 K, Liquid | 1200.9
460 K, Liquid | 1201.6
465 K, Liquid | 1202
470 K, Liquid | 1201.9

c1ccc2c(c1)OCCOCCOc1ccccc1OCCOCCO2 [dibenzo[b,k][1,4,7,10,13,16]hexaoxacyclooctadecane]
[1]
Settings | vapor or sublimation pressure
545 K | 0.5186 kPa and 0.4924 kPa and 0.5452 kPa
550 K | 0.6057 kPa and 0.6363 kPa and 0.6637 kPa
555 K | 0.7424 kPa and 0.8052 kPa and 0.7755 kPa
560 K | 0.9045 kPa and 0.9751 kPa and 0.9424 kPa
565 K | 1.095 kPa and 1.169 kPa and 1.137 kPa
570 K | 1.323 kPa and 1.398 kPa and 1.369 kPa
575 K | 1.589 kPa and 1.663 kPa and 1.638 kPa
580 K | 1.903 kPa and 1.969 kPa and 1.948 kPa
585 K | 2.258 kPa and 2.321 kPa and 2.316 kPa
590 K | 2.673 kPa and 2.72 kPa and 2.717 kPa
595 K | 3.164 kPa and 3.142 kPa and 3.16 kPa

Settings | Molar enthalpy of transition or fusion [kcal/mol] | Normal melting temperature [°C]
[1] | – | 162.50
[2] | 13.4 | –

[3]
Settings | molar heat capacity at constant pressure [J/K/mol]
295 K, Crystal | 434.6
298.15 K, Crystal | 439.7
300 K, Crystal | 443.6
305 K, Crystal | 449
310 K, Crystal | 457.8
315 K, Crystal | 462.9
320 K, Crystal | 468.4
325 K, Crystal | 474.6
330 K, Crystal | 481.5
335 K, Crystal | 487.5
340 K, Crystal | 494.7
345 K, Crystal | 500.5
350 K, Crystal | 506.2
355 K, Crystal | 513.3
360 K, Crystal | 520.1
365 K, Crystal | 527
370 K, Crystal | 533.2
375 K, Crystal | 540.2
380 K, Crystal | 547.6
385 K, Crystal | 555.2
390 K, Crystal | 563.2
395 K, Crystal | 571.3
400 K, Crystal | 580.1
405 K, Crystal | 588.7
410 K, Crystal | 596.8
415 K, Crystal | 604.8
445 K, Liquid | 755.4
450 K, Liquid | 761
455 K, Liquid | 768.7
460 K, Liquid | 772.5
465 K, Liquid | 780.2
470 K, Liquid | 787
475 K, Liquid | 792
480 K, Liquid | 799.7
485 K, Liquid | 806
490 K, Liquid | 812.6

c1ccc2c(c1)ccc1ccccc12 [phenanthrene]
[1]
Settings | vapor or sublimation pressure [kPa]
384 K | 0.0567
388 K | 0.0795
392 K | 0.097
396 K | 0.1144
400 K | 0.146
404 K | 0.1785
408 K | 0.2069
412 K | 0.2439
416 K | 0.2926
420 K | 0.3468
